18 compounds from patent US9951064B2, “Azaindazole compounds as inhibitors of T790M containing EGFR mutants” (Genentech, Inc., priority 2013, dated 2018) can be followed below.

For assay [1], the target named is T1, EGFR T790M L858R (Homo sapiens, UniProt P00533, L858R/T790M).
T1 construct: purchased Life Technologies PV4879
Description: EGFR T790M L858R biochemical assay (Caliper mobility shift). The conditions noted are these: 5 μM ATP; apparent Ki (Morrison fit) converted by Cheng-Prusoff, Km of ATP 1.3 μM. A digest of the protocol:
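Reactions run 30 minutes at room temperature (22 °C), stopped with 80 mM EDTA. Phosphorylated product and substrate separated electrophoretically and quantified by Caliper mobility shift.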

In assay [2] the target is T2, EGFR del746-750 T790M (Homo sapiens, UniProt P00533, DEL746-750/T790M).
T2 construct: purchased Carna Biosciences 08-528
Kind of assay: EGFR del746-750 T790M biochemical assay (Caliper mobility shift). The conditions noted are these: 5 μM ATP; apparent Ki (Morrison fit) converted by Cheng-Prusoff, Km of ATP 2.1 μM; read-out: EGFR(T790M/d746-750) Ki. In short, it runs like this:
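Kinase reactions ran 30 min at room temperature (22 °C), then were stopped with 80 mM EDTA. Phosphorylated product and substrate were separated electrophoretically and quantified by Caliper mobility shift.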

The target of assay [3] is T3, phosphor-EGFR in H1975(L585R/T790M) mutant EGFR expressing cells (Homo sapiens, UniProt P00533, L858R/T790M).
T3 construct: host or cells: NCI-H1975
Kind of assay: H1975 pEGFR MSD cellular assay. In kind it is cell-based. The following applies: NCI-H1975 cells, serum starved, 1 hour compound incubation, pEGFR Tyr1068 MSD; read-out: HI975 pEGFR EC50. A digest of the protocol: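 NCI-H1975 cells, 30,000/well, serum-starved overnight, then treated 1 hour at 37° C with serially diluted compounds in serum-free medium (0.5% DMSO). Lysates captured on anti-phospho-EGFR plates overnight at 4° C, detected with SULFO-TAG anti-total EGFR by electrochemiluminescence. Inhibition vs untreated controls; EC50 from 4-parameter logistic fit.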

The test system of assay [4] is H1975 (EGFR T790M/L858R) cell proliferation. Description: H1975 proliferation assay (Cell Titer-Glo). The assay is classed as cell-based. The following applies: Homo sapiens, NCI-H1975, 72 h, NCI-H1975 cells, 72 hour incubation, read-out: H1975 antiproliferative EC50. As for the experimental part:
H1975 Proliferation Assays
All cell culture reagents were purchased from Invitrogen/Gibco. Cells are cultured at 37° C. at 5% CO2 and split as recommended by ATCC.

The structures appear in SMILES notation. pEC50, pKi: −log10 of the molar value.

T1 sequence (P00533 25-1210 T790M/L858R): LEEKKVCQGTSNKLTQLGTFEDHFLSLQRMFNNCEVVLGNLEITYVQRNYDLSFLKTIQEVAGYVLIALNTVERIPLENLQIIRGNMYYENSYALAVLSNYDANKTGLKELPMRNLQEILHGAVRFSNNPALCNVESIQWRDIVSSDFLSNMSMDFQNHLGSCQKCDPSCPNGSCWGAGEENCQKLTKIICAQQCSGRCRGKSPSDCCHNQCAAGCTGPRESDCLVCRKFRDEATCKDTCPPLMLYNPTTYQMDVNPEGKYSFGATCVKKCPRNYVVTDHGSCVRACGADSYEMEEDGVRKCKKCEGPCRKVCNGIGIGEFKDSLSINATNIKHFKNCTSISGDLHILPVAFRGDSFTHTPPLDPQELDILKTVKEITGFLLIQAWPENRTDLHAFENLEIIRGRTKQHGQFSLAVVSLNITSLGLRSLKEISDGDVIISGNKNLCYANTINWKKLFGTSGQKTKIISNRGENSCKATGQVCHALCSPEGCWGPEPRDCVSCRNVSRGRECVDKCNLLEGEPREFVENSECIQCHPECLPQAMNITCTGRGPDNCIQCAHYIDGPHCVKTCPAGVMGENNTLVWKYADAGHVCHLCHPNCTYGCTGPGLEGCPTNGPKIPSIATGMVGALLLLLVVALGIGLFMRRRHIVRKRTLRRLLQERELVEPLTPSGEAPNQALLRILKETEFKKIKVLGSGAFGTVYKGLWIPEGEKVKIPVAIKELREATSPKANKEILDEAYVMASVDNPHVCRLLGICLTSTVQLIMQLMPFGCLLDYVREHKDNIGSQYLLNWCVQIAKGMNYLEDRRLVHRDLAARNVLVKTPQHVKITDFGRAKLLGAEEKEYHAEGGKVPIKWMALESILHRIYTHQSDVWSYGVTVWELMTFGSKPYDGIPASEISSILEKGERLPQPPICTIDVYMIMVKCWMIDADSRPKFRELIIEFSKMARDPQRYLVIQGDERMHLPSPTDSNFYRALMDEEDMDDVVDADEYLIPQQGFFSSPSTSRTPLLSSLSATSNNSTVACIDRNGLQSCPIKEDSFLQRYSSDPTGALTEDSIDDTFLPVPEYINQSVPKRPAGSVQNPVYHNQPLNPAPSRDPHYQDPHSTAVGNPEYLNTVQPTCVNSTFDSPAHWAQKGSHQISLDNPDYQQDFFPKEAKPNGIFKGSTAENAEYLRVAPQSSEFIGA
T3 sequence (P00533 25-1210 T790M/L858R): as above
T2 sequence (P00533 with tags, fused parts or gaps DEL746-750/T790M limits assumed): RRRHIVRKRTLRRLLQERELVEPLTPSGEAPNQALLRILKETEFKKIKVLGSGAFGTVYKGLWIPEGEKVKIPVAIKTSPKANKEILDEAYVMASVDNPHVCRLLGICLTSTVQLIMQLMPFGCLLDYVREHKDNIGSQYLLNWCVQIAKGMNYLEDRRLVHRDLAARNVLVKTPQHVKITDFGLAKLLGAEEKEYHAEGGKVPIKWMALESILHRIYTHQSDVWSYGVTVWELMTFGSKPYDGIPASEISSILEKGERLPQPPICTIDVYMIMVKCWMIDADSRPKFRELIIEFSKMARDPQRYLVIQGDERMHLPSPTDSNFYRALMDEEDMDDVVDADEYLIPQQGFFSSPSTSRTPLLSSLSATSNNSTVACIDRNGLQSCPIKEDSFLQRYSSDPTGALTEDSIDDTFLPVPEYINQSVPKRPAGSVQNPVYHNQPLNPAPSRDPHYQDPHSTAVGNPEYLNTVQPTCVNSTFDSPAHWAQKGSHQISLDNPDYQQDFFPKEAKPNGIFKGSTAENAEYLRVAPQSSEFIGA

A word on the pEC50: it is the EC50 on a negative log10 scale, so that one unit is a factor of ten. Regarding `CC(C)n1nc(N2CC[C@@H](O)C2)c2cnc(Nc3ccnc(-c4cnn(S(=O)(=O)C5CC5)c4)n3)cc21` [Example 114, (R)-1-(6-(2-(1-(Cyclopropylsulfonyl)-1H-pyrazol-4-yl)pyrimidin-4-ylamino)-1-isopropyl-1H-pyrazolo[4,3-c]pyridin-3-yl)pyrrolidin-3-ol], the pKi in assay [1] is 9.10; in assay [2], 9.15. Also, the pEC50 is 8.25 in assay [3] and 6.72 in assay [4].

Take `CC(C)n1nc(N2CCC3(CNC(=O)C3)C2)c2cnc(Nc3ccnc(-c4cnn(S(=O)(=O)C5CC5)c4)n3)cc21` (stereo not drawn) [Example 115, 7-(6-((2-(1-(Cyclopropylsulfonyl)-1H-pyrazol-4-yl)pyrimidin-4-yl)amino)-1-isopropyl-1H-pyrazolo[4,3-c]pyridin-3-yl)-2,7-diazaspiro[4.4]nonan-3-one]: the pKi in assay [1] was 8.96; in assay [2], 9.05. Further, the pEC50 in assay [3] was 6.66; in assay [4], 5.75.

For `CC(C)n1nc(NC(=O)C(C)(C)O)c2cnc(Nc3ccnc(-c4cnn(S(=O)(=O)C5CC5)c4)n3)cc21` [Example 116, N-(6-(2-(1-(Cyclopropylsulfonyl)-1H-pyrazol-4-yl)pyrimidin-4-ylamino)-1-isopropyl-1H-pyrazolo[4,3-c]pyridin-3-yl)-2-hydroxy-2-methylpropanamide], the results for the pKi in assay [1] and in assay [2] were 8.59 and 8.70, respectively. The pEC50 in assay [3] was 6.20; in assay [4] it was 5.68.

`CC(C)n1nc(N2CC(N3CCOCC3)C2)c2cnc(Nc3ccnc(-c4cnn(S(=O)(=O)C5CC5)c4)n3)cc21` [Example 117, N-(2-(1-(Cyclopropylsulfonyl)-1H-pyrazol-4-yl)pyrimidin-4-yl)-1-isopropyl-3-(3-morpholinoazetidin-1-yl)-1H-pyrazolo[4,3-c]pyridin-6-amine]: the figures for the pKi in assay [1] and in assay [2] were 8.89 and 8.96, respectively. The pEC50 in assay [3] was 7.26; in assay [4] it was 6.36.

For the compound `CCN1CCN(c2nn(C(C)C)c3cc(Nc4ccnc(-c5cnn(S(=O)(=O)C6CC6)c5)n4)ncc23)CC1` [Example 118, N-(2-(1-(Cyclopropylsulfonyl)-1H-pyrazol-4-yl)pyrimidin-4-yl)-3-(4-ethylpiperazin-1-yl)-1-isopropyl-1H-pyrazolo[4,3-c]pyridin-6-amine], the pKi in assay [1] is 8.85; in assay [2] it was 8.96. For the same compound, the results for the negative-log EC50 (pEC50) in assay [3] and in assay [4] were 6.87 and 5.99, respectively.

`CC(C)n1nc(N2CCC3(COC3)C2)c2cnc(Nc3ccnc(-c4cnn(S(=O)(=O)C5CC5)c4)n3)cc21` [Example 120, N-(2-(1-(Cyclopropylsulfonyl)-1H-pyrazol-4-yl)pyrimidin-4-yl)-1-isopropyl-3-(2-oxa-6-azaspiro[3.4]octan-6-yl)-1H-pyrazolo[4,3-c]pyridin-6-amine]: the results for the pKi in assay [1] and in assay [2] were 8.85 and 8.89, respectively. The negative-log EC50 (pEC50) in assay [3] is 7.48; in assay [4], 6.37.

Take `CC(C)n1nc(N2CC(CC#N)C2)c2cnc(Nc3ccnc(-c4cnn(S(=O)(=O)C5CC5)c4)n3)cc21` [Example 121, 2-(1-(6-(2-(1-(Cyclopropylsulfonyl)-1H-pyrazol-4-yl)pyrimidin-4-ylamino)-1-isopropyl-1H-pyrazolo[4,3-c]pyridin-3-yl)azetidin-3-yl)acetonitrile]: the pKi was 9.10 in assay [1] and 9.15 in assay [2]. Also, the pEC50 is 7.71 in assay [3] and 6.74 in assay [4].

For the compound `CC(C)n1nc(N2CC(C)(CO)C2)c2cnc(Nc3ccnc(-c4cnn(S(=O)(=O)C5CC5)c4)n3)cc21` [Example 122, (1-(6-(2-(1-(Cyclopropylsulfonyl)-1H-pyrazol-4-yl)pyrimidin-4-ylamino)-1-isopropyl-1H-pyrazolo[4,3-c]pyridin-3-yl)-3-methylazetidin-3-yl)methanol], the pKi in assay [1] is 8.92; in assay [2] it was 9.00. In addition, the negative logarithm of the EC50 (pEC50) was 7.06 in assay [3] and 6.21 in assay [4].

For the compound `CC(C)n1nc(N2CC[C@H](O)C2)c2cnc(Nc3ccnc(-c4cnn(S(=O)(=O)C5CC5)c4)n3)cc21` [Example 123, (S)-1-(6-(2-(1-(Cyclopropylsulfonyl)-1H-pyrazol-4-yl)pyrimidin-4-ylamino)-1-isopropyl-1H-pyrazolo[4,3-c]pyridin-3-yl)pyrrolidin-3-ol], the pKi in assay [1] and in assay [2] was 9.22 each time. Also, the pEC50 in assay [3] was 8.36; in assay [4], 6.70.

On to `CC(C)n1nc(N2CC(O)(CO)C2)c2cnc(Nc3ccnc(-c4cnn(S(=O)(=O)C5CC5)c4)n3)cc21` [Example 124, 1-(6-(2-(1-(Cyclopropylsulfonyl)-1H-pyrazol-4-yl)pyrimidin-4-ylamino)-1-isopropyl-1H-pyrazolo[4,3-c]pyridin-3-yl)-3-(hydroxymethyl)azetidin-3-ol], for which the pKi in assay [1] and in assay [2] was 9.15 each time. The pEC50 is 6.61 in assay [3] and 6.18 in assay [4].

On to `CC(C)n1nc(NCCS(C)(=N)=O)c2cnc(Nc3ccnc(-c4cnn(S(=O)(=O)C5CC5)c4)n3)cc21` (stereo not drawn) [Example 125, N^6-(2-(1-(Cyclopropylsulfonyl)-1H-pyrazol-4-yl)pyrimidin-4-yl)-1-isopropyl-N^3-(2-(S-methylsulfonimidoyl)ethyl)-1H-pyrazolo[4,3-c]pyridine-3.6-diamine], for which the results for the pKi in assay [1] and in assay [2] were 8.96 and 9.10, respectively. The pEC50 was 5.55 in assay [3] and below 5.00 in assay [4].

As for `CC(C)n1nc(N2CC3(CN(CC(F)(F)F)C3)C2)c2cnc(Nc3ccnc(-c4cnn(S(=O)(=O)C5CC5)c4)n3)cc21` [Example 126, N-(2-(1-(Cyclopropylsulfonyl)-1H-pyrazol-4-yl)pyrimidin-4-yl)-1-isopropyl-3-(6-(2,2,2-trifluoroethyl)-2,6-diazaspiro[3.3]heptan-2-yl)-1H-pyrazolo[4,3-c]pyridin-6-amine], the pKi was 8.28 in assay [1] and 8.34 in assay [2]. Moreover, the pEC50 in assay [3] was 7.10; in assay [4], 5.94.

On to `CC(C)n1nc(N2CCO[C@H](CO)C2)c2cnc(Nc3ccnc(N4CC[C@H](O)[C@H](F)C4)n3)cc21` [Example 132, cis-3-Fluoro-1-(4-(3-((S)-2-(hydroxymethyl)morpholino)-1-isopropyl-1H-pyrazolo[4,3-c]pyridin-6-ylamino)pyrimidin-2-yl)piperidin-4-ol], for which the pKi in assay [1] is 8.31; in assay [2] it was 7.84. The pEC50 is 5.85 in assay [3] and below 5.00 in assay [4].

Take `CC(C)n1nc(N2CC(C#N)CC2=O)c2cnc(Nc3ccnc(N4CCC(C)(O)CC4)n3)cc21` (stereo not drawn) [Example 137, 1-(6-(2-(4-Hydroxy-4-methylpiperidin-1-yl)pyrimidin-4-ylamino)-1-isopropyl-1H-pyrazolo[4,3-c]pyridin-3-yl)-5-oxopyrrolidine-3-carbonitrile]: the pKi is 8.00 in assay [1] and 7.57 in assay [2]. In addition, the negative logarithm of the EC50 (pEC50) in assay [3] was 6.15; in assay [4], 5.96.

Turning to `CC(C)n1nc(N2CC3(C2)C[S+]([O-])C3)c2cnc(Nc3ccnc(N4CCC(C)(O)CC4)n3)cc21` [Example 138, 6-(6-((2-(4-Hydroxy-4-methylpiperidin-1-yl)pyrimidin-4-yl)amino)-1-isopropyl-1H-pyrazolo[4,3-c]pyridin-3-yl)-2-thia-6-azaspiro[3.3]heptane 2-oxide], the figures for the pKi in assay [1] and in assay [2] were 8.34 and 7.71, respectively. Further, the pEC50 was 5.85 in assay [3] and 5.41 in assay [4].

For the compound `CC(C)n1nc(NCCC2OCC(N)CO2)c2cnc(Nc3ccnc(N4CCC(C)(O)CC4)n3)cc21` (stereo not drawn) [Example 139, 1-(4-(3-(2-(5-Amino-1,3-dioxan-2-yl)ethylamino)-1-isopropyl-1H-pyrazol[4,3-c]pyridin-6-ylamino)pyrimidin-2-yl)-4-methylpiperidin-4-ol], the pKi in assay [1] is 8.15; in assay [2] it was 7.74. The results for the negative-log EC50 (pEC50) in assay [3] and in assay [4] were 5.22 and below 5.00, respectively.

For `CC(n1nc(N2CC[C@@H](O)C2)c2cnc(Nc3ccnc(N4CCC(C)(O)CC4)n3)cc21)C(F)(F)F` (stereo partly drawn) [Example 143, 1-(4-(3-((R)-3-Hydroxypyrrolidin-1-yl)-1-(1,1,1-trifluoropropan-2-yl)-1H-pyrazolo[4,3-c]pyridin-6-ylamino)pyrimidin-2-yl)-4-methylpiperidin-4-ol], the pKi in assay [1] was 8.54; in assay [2], 7.95. Also, the figures for the pEC50 in assay [3] and in assay [4] were 6.66 and 6.05, respectively.

For the compound `CCC(C)n1nc(N2CC[C@H](C(N)=O)C2)c2cnc(Nc3ccnc(N4CCC(C)(O)CC4)n3)cc21` (stereo partly drawn) [Example 144, (3S)-1-(1-sec-Butyl-6-(2-(4-hydroxy-4-methylpiperidin-1-yl)pyrimidin-4-ylamino)-1H-pyrazolo[4,3-c]pyridin-3-yl)pyrrolidine-3-carboxamide], the values for the pKi in assay [1] and in assay [2] were 8.74 and 8.68, respectively. For the same compound, the pEC50 in assay [3] was 6.03; in assay [4], 5.66.
